From patent US20250250287A1, “HETEROCYCLIC COMPOUNDS, COMPOSITIONS THEREOF, AND METHODS OF TREATMENT THEREWITH” (BeiGene Switzerland GmbH, priority 2022, published 2025)

System: pERK1/2(THR202/TYR204) level in AsPC-1 cell line (KRAS G12D)
Assay: KRAS G12D pERK assay (HTRF) in AsPC-1 cell line
Format: cell-based
Details: Homo sapiens, ASPC1; AsPC-1 cells, 2 h compound treatment
Procedure: AsPC-1 cell line was used in this study. Cells were maintained in RPMI-1640 supplemented with 10% fetal bovine serum (Thermo Fisher), 50 units/mL penicillin and streptomycin (Thermo Fisher) and kept at 37° C. in a humidified atmosphere of 5% CO2 in air. Cells were reinstated from frozen stocks that were laid down within 30 passages from the original cells purchased. 30000 cells per well were seeded into a 96-well plate and incubated overnight. Cells were treated with a 10-point dilution series. The final compound concentration is from 0 to 10 μM. After 2 h compound treatment, cells were lysed, and the pERK1/2(THR202/TYR204) level in the cell lysates was detected by HTRF kit (Cisbio). In brief, a total of 16 μL of cell lysate from each well of a 96-well plate was transferred to a 384-well white assay plate. Lysate from each well was incubated with 2 μL of Eu3+-cryptate (donor) labeled anti-phospho-ERK1/2 and 2 μL of D2 (acceptor) labeled anti-phospho-ERK1/2 antibodies (Cisbio) overnight in dark at room temperature. When donor and acceptor are in close proximity, excitation of the donor with laser triggers a Fluorescence Resonance Energy Transfer (FRET) towards the acceptor, which in turn fluoresces at 655 nm wavelength. FRET signals were measured using a PHERAstar FSX reader (BMG Labtech). […]

C#Cc1c(F)ccc2cc(O)cc(-c3nc4c5c(nc(OC[C@@]67CCCN6C[C@H](F)C7)nc5c3F)N3CCCC[C@H]3CO4)c12 [Example 16, 5-ethynyl-6-fluoro-4-((S)-1-fluoro-11-(((2R,7aS)-2-fluorotetrahydro-1H-pyrrolizin-7a(5H)-yl)methoxy)-5,5a,6,7,8,9-hexahydro-4-oxa-3,9a,10,12-tetraazabenzo[4,5]cyclohepta[1,2,3-d]naphthalen-2-yl)naphthalen-2-ol] gave an IC50 of 6.3 nM.

System: pERK1/2(THR202/TYR204) level in SW620 cell line (KRAS G12V)
Assay: KRAS G12V pERK assay (HTRF) in SW620 cell line
Format: cell-based
Details: Homo sapiens, SW-620, 2 h, SW620 cells, 2 hrs compound treatment
Procedure: SW620 cell line was used in this study. Cells were maintained in RPMI 1640 supplemented with 10% fetal bovine serum (Thermo Fisher), 50 units/mL penicillin and streptomycin (Thermo Fisher) and kept at 37° C. in a humidified atmosphere of 5% CO2 in air. Cells were reinstated from frozen stocks that were laid down within 30 passages from the original cells purchased. 40000 cells per well were seeded into a 96-well plate and incubated overnight. Cells were treated with a 10-point dilution series. The final compound concentration is from 0 to 10 μM. After 2 hrs compound treatment, cells were lysed, and the pERK1/2(THR202/TYR204) level in the cell lysates was detected by HTRF kit (Cisbio). In brief, a total of 16 μL of cell lysate from each well of a 96-well plate was transferred to a 384-well white assay plate. Lysate from each well was incubated with 2 μL of Eu3+-cryptate (donor) labeled anti-phospho-ERK1/2 and 2 μL of D2 (acceptor) labeled anti-phospho-ERK1/2 antibodies (Cisbio) overnight in dark at room temperature. When donor and acceptor are in close proximity, excitation of the donor with laser triggers a Fluorescence Resonance Energy Transfer (FRET) towards the acceptor, which in turn fluoresces at 655 nm wavelength. FRET signals were measured using a PHERAstar FSX reader (BMG Labtech). IC50 determination was performed by fitting the curve of percent inhibition versus the log of the inhibitor concentration using Dotmatics.

First: C#Cc1c(F)ccc2cc(O)cc(-c3nc4c5c(nc(OC[C@@]67CCCN6C[C@H](F)C7)nc5c3F)N3CCCC[C@H]3CO4)c12 [Example 16, 5-ethynyl-6-fluoro-4-((S)-1-fluoro-11-(((2R,7aS)-2-fluorotetrahydro-1H-pyrrolizin-7a(5H)-yl)methoxy)-5,5a,6,7,8,9-hexahydro-4-oxa-3,9a,10,12-tetraazabenzo[4,5]cyclohepta[1,2,3-d]naphthalen-2-yl)naphthalen-2-ol]
Second: C#Cc1c(F)ccc2cc(O)cc(-c3nc4c5c(nc(OC[C@@]67CCCN6C[C@H](F)C7)nc5c3F)N3CCCCCC3CO4)c12 (stereo partly drawn) [Example 26, 5-ethynyl-6-fluoro-4-(1-fluoro-12-(((2R,7aS)-2-fluorotetrahydro-1H-pyrrolizin-7a(5H)-yl)methoxy)-5a,6,7,8,9,10-hexahydro-5H-4-oxa-3,10a,11,13-tetraazanaphtho[1,8-ab]heptalen-2-yl)naphthalen-2-ol]
The IC50 of the first is 1.6-fold lower: 5.9 nM for the first, 9.3 nM for the second.

Compared with Nc1cc(Cl)c(C(F)(F)F)c(-c2nc3c4c(nc(OC[C@@]56CCCN5C[C@H](F)C6)nc4c2F)N2CC[C@H]2CCO3)c1 [Example 22, 3-chloro-5-((S)-6-fluoro-4-(((2R,7aS)-2-fluorotetrahydro-1H-pyrrolizin-7a(5H)-yl)methoxy)-1,10,11,11a-tetrahydro-2H-9-oxa-2a,3,5,8-tetraazacyclobuta[4,5]cycloocta[1,2,3-de]naphthalen-7-yl)-4-(trifluoromethyl)aniline], Nc1cc(Cl)c(C(F)(F)F)c(-c2nc3c4c(nc(OC[C@@]56CCCN5C[C@H](F)C6)nc4c2F)N2CC[C@@H]2CCO3)c1 [Example 23, 3-chloro-5-((R)-6-fluoro-4-(((2R,7aS)-2-fluorotetrahydro-1H-pyrrolizin-7a(5H)-yl)methoxy)-1,10,11,11a-tetrahydro-2H-9-oxa-2a,3,5,8-tetraazacyclobuta[4,5]cycloocta[1,2,3-de]naphthalen-7-yl)-4-(trifluoromethyl)aniline] is 6.4-fold lower in IC50: 466 nM for the first, 73 nM for the second.

Going from CC1Oc2nc(-c3cc(N)cc(Cl)c3C(F)(F)F)c(F)c3nc(OC[C@@]45CCCN4C[C@H](F)C5)nc(c23)N2CCC[C@@H]12 (stereo partly drawn) [Example 24, 3-chloro-5-((11aS)-7-fluoro-5-(((2R,7aS)-2-fluorotetrahydro-1H-pyrrolizin-7a(5H)-yl)methoxy)-11-methyl-2,3,11,11a-tetrahydro-1H-10-oxa-3a,4,6,9-tetraazanaphtho[1,8-ef]azulen-8-yl)-4-(trifluoromethyl)aniline] to C[C@@H]1Oc2nc(-c3cc(N)cc(Cl)c3C(F)(F)F)c(F)c3nc(OC[C@@]45CCCN4C[C@H](F)C5)nc(c23)N2CCCC[C@@H]12 [Example 33, 3-chloro-5-((5S,5aS)-1-fluoro-11-(((2R,7aS)-2-fluorotetrahydro-1H-pyrrolizin-7a(5H)-yl)methoxy)-5-methyl-5,5a,6,7,8,9-hexahydro-4-oxa-3,9a,10,12-tetraazabenzo[4,5]cyclohepta[1,2,3-de]naphthalen-2-yl)-4-(trifluoromethyl)aniline], the IC50 falls from 121 nM to 43 nM (2.8-fold).

Going from Nc1cc(Cl)c(C(F)(F)F)c(-c2nc3c4c(nc(OC[C@@]56CCCN5C[C@H](F)C6)nc4c2F)N2CCCCCC2CO3)c1 (stereo partly drawn) [Example 25, 3-chloro-5-(1-fluoro-12-(((2R,7aS)-2-fluorotetrahydro-1H-pyrrolizin-7a(5H)-yl)methoxy)-5a,6,7,8,9,10-hexahydro-5H-4-oxa-3,10a,11,13-tetraazanaphtho[1,8-ab]heptalen-2-yl)-4-(trifluoromethyl)aniline] to C#Cc1c(F)ccc2cc(O)cc(-c3nc4c5c(nc(OC[C@@]67CCCN6C[C@H](F)C7)nc5c3F)N3C[C@@H](O)CC[C@H]3CO4)c12 [Example 35, (5aS,8S)-2-(8-ethynyl-7-fluoro-3-hydroxynaphthalen-1-yl)-1-fluoro-11-(((2R,7aS)-2-fluorotetrahydro-1H-pyrrolizin-7a(5H)-yl)methoxy)-5,5a,6,7,8,9-hexahydro-4-oxa-3,9a,10,12-tetraazabenzo[4,5]cyclohepta[1,2,3-de]naphthalen-8-ol], the IC50 falls from 53 nM to 15 nM (3.5-fold).

Compared with N#Cc1c(N)sc2c(F)ccc(-c3c(Cl)c4c5c(nc(OC[C@@]67CCCN6C[C@H](F)C7)nc5c3F)N3CCC[C@H]3CO4)c12 [Example 27, 2-amino-4-((S)-10-chloro-8-fluoro-6-(((2R,7aS)-2-fluorotetrahydro-1H-pyrrolizin-7a(5H)-yl)methoxy)-2,3,12,12a-tetrahydro-1H-pyrrolo[2′,1′:3,4][1,4]oxazepino[5,6,7-de]quinazolin-9-yl)-7-fluorobenzo[b]thiophene-3-carbonitrile], N#Cc1c(N)sc2c(F)ccc(-c3c(Cl)c4c5c(nc(OC[C@@]67CCCN6C[C@H](F)C7)nc5c3F)N3CC[C@@H](O)C[C@H]3CO4)c12 [Example 31, 2-Amino-4-((8aS,10R)-6-chloro-4-fluoro-2-(((2R,7aS)-2-fluorotetrahydro-1H-pyrrolizin-7a(5H)-yl)methoxy)-10-hydroxy-8,8a,9,10,11,12-hexahydropyrido[2′,1′:3,4][1,4]oxazepino[5,6,7-de]quinazolin-5-yl)-7-fluorobenzo[b]thiophene-3-carbonitrile] is 1.8-fold higher in IC50: 31 nM for the first, 56 nM for the second.

C[C@@H]1C[C@H]2COc3c(Cl)c(-c4ccc(F)c5sc(N)c(C#N)c45)c(F)c4nc(OC[C@@]56CCCN5C[C@H](F)C6)nc(c34)N2C1 [Example 28, 2-amino-4-((2R,12aS)-10-chloro-8-fluoro-6-(((2R,7aS)-2-fluorotetrahydro-1H-pyrrolizin-7a(5H)-yl)methoxy)-2-methyl-2,3,12,12a-tetrahydro-1H-pyrrolo[2′,1′:3,4][1,4]oxazepino[5,6,7-de]quinazolin-9-yl)-7-fluorobenzo[b]thiophene-3-carbonitrile] and N#Cc1c(N)sc2c(F)ccc(-c3c(Cl)c4c5c(nc(OC[C@@]67CCCN6C[C@H](F)C7)nc5c3F)N3C[C@H](O)C[C@H]3CO4)c12 [Example 29, 2-amino-4-((2R,12aS)-10-chloro-8-fluoro-6-(((2R,7aS)-2-fluorotetrahydro-1H-pyrrolizin-7a(5H)-yl)methoxy)-2-hydroxy-2,3,12,12a-tetrahydro-1H-pyrrolo[2′,1′:3,4][1,4]oxazepino[5,6,7-de]quinazolin-9-yl)-7-fluorobenzo[b]thiophene-3-carbonitrile] are within 1.5-fold of each other in IC50: 74 nM for the first, 91 nM for the second.

Compared with N#Cc1c(N)sc2c(F)ccc(-c3c(Cl)c4c5c(nc(OC[C@@]67CCCN6C[C@H](F)C7)nc5c3F)N3CCC(C#N)C[C@H]3CO4)c12 (stereo partly drawn) [Example 30, (8aS)-5-(2-amino-3-cyano-7-fluorobenzo[b]thiophen-4-yl)-6-chloro-4-fluoro-2-(((2R,7aS)-2-fluorotetrahydro-1H-pyrrolizin-7a(5H)-yl)methoxy)-8,8a,9,10,11,12-hexahydropyrido[2′,1′:3,4][1,4]oxazepino[5,6,7-de]quinazoline-10-carbonitrile], C#Cc1c(F)ccc2cc(O)cc(-c3nc4c5c(nc(OC[C@@]67CCCN6C[C@H](F)C7)nc5c3F)N3[C@H](CO4)C[C@@H]4C[C@@H]43)c12 [Example 32, 5-ethynyl-6-fluoro-4-((5aS,6aS,7aS)-1-fluoro-9-(((2R,7aS)-2-fluorotetrahydro-1H-pyrrolizin-7a(5H)-yl)methoxy)-5,5a,6,6a,7,7a-hexahydro-4-oxa-3,7b,8,10-tetraazacyclopropa[a]naphtho[1,8-gh]azulen-2-yl)naphthalen-2-ol] is 2-fold lower in IC50: 51 nM for the first, 26 nM for the second.

C#Cc1c(F)ccc2cc(O)cc(-c3nc4c5c(nc(OC[C@@]67CCCN6C[C@H](F)C7)nc5c3F)N3CCCC[C@H]3[C@H](C)O4)c12 [Example 34, 5-ethynyl-6-fluoro-4-((5S,5aS)-1-fluoro-11-(((2R,7aS)-2-fluorotetrahydro-1H-pyrrolizin-7a(5H)-yl)methoxy)-5-methyl-5,5a,6,7,8,9-hexahydro-4-oxa-3,9a,10,12-tetraazabenzo[4,5]cyclohepta[1,2,3-de]naphthalen-2-yl)naphthalen-2-ol] gave an IC50 of 10 nM.
